According to BigSolDB 2.1:

O.O=C1NC(=O)C(=O)C(=O)N1
solubility (mole fraction)
Conditions | 293.15 K | 298.15 K | 303.15 K | 308.15 K | 313.15 K | 318.15 K | 323.15 K
in THF | 0.046 | 0.0549 | 0.0638 | 0.0739 | 0.084 | 0.0954 | 0.107
in acetone | 0.0128 | 0.0132 | 0.0136 | 0.014 | 0.0143 | 0.0146 | 0.015
in ethanol | 0.0856 | 0.0962 | 0.107 | 0.119 | 0.131 | 0.143 | 0.155
in ethylene glycol | 0.0113 | 0.0143 | 0.0172 | 0.0206 | 0.024 | 0.0283 | 0.0327
in methanol | 0.105 | 0.117 | 0.129 | 0.142 | 0.155 | 0.168 | 0.181
in water | 0.0377 | 0.0403 | 0.0429 | 0.0456 | 0.0482 | 0.051 | 0.0539
